Assay results reported in PMC10073475, “Effect of mTOR inhibitors on sodium taurocholate cotransporting polypeptide (NTCP) function in vitro” (Frontiers in Pharmacology, 2023).

Legend:
[1] = target: T1, sodium taurocholate cotransporting polypeptide (NTCP) (Homo sapiens, UniProt Q14973); assay: [3H]-taurocholate uptake inhibition in NTCP-GFP Flp-In T-REx […] cells (IC50 […] in differentiated HuH-7); assay type: cell-based
T1 construct: gene SLC10A1; GFP-tagged human NTCP (NM_003049)
T1 sequence (Q14973 1-349): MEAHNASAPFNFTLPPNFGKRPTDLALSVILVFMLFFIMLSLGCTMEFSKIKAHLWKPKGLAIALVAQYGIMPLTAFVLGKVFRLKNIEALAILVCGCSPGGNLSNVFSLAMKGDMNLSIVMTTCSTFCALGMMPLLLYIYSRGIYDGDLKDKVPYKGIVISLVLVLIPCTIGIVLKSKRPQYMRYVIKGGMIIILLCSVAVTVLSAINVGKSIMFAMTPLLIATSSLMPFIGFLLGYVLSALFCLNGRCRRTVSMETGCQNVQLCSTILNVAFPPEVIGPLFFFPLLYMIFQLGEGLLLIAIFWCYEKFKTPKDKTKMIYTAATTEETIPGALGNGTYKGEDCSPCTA

[2] = target: T1, sodium taurocholate cotransporting polypeptide (NTCP); assay: [3H]-taurocholate uptake inhibition at […] in NTCP-GFP Flp-In T-REx […] and differentiated HuH-7 cells; assay type: cell-based

| SMILES | IC50 [1] [µM] | [3H]-taurocholate uptake inhibition at 10 μM in NTCP-GFP Flp-In T-REx 293 and di [2] |
| --- | --- | --- |
| CO[C@H]1C[C@@H]2CC[C@@H](C)[C@@](O)(O2)C(=O)C(=O)N2CCCC[C@H]2C(=O)O[C@H]([C@H](C)C[C@@H]2CC[C@@H](OCCO)[C@H](OC)C2)CC(=O)[C@H](C)/C=C(\C)[C@@H](O)[C@@H](OC)C(=O)[C@H](C)C[C@H](C)/C=C/C=C/C=C/1C [everolimus] | 6.7 ± 1.3 |  |
| CO[C@H]1C[C@@H]2CC[C@@H](C)[C@@](O)(O2)C(=O)C(=O)N2CCCC[C@H]2C(=O)O[C@H]([C@H](C)C[C@@H]2CC[C@@H](OC(=O)C(C)(CO)CO)[C@H](OC)C2)CC(=O)[C@H](C)/C=C(\C)[C@@H](O)[C@@H](OC)C(=O)[C@H](C)C[C@H](C)/C=C/C=C/C=C/1C [temsirolimus] |  | everolimus, sirolimus and temsirolimus significantly inhibited TCA accumulation in Na^+-containing ECF buffer and NTCP-mediated TCA accumulation |
